Entries after “also recorded” stand apart in the source; their conditions may differ.
Tests used:
H1 cell line = assay: Definitive endoderm (DE) differentiation, flow cytometry of SOX17; format: cell-based, human
Description: (§1) Human ES or iPS cells were cultured in E8 medium and routinely passed by EDTA. When cells reach to 80-90% confluences, cells were treated with TrpLE Select and get single cell for passaging. Typically, 0.15 millions human ES or iPS cells were plated in one well of the six-well plates with ROCK inhibitor 10 uM in 2 ML E8 media. For the H1 line, it was typically plated 0.1 million cells to accommodate the higher proliferation rate. Twenty-four hours later, cells were washed with PBS once and add Day0 media (Advanced RPMI (Thermo Fisher Scientific, 12633012) with penicillin/streptomycin (Thermo Fisher Scientific, 15070063), GlutaMAX (Thermo Fisher Scientific, 35050079), 0.003% BSA (Thermo Fisher Scientific, 15260037), […] CHIR-99021 (Tocris, 4423) and 100 ng/ml Activin A (PeperoTech, 12014E)). Over the next 2 days, cells were changed to Day2 media (Advanced RPMI with penicillin/streptomycin, GlutaMAX, 0.2% FBS and 100 ng/ml Activin A). […] JNK inhibitor JNK-IN-8 (Selleckchem, S4901) was used during differentiation when indicated. Routinely, around 60-80% SOX17+ cells were obtained in 3 days.
(§2) Cells were dissociated using TrypLE Select and resuspended in FACS buffer (5% FBS, 5 mM EDTA in PBS). […] After washing with permeabilization buffer, cells were resuspended in FACS buffer, and samples were analyzed using BD LSRfortessa or BD LSRII. […]

[1] = system: definitive endoderm (SOX17 and CXCR4 expression); assay: Serum-free DE differentiation with JNK inhibition on the first day; format: cell-based, human; details: one day of JNK inhibition, no serum
Excerpt: (§3) An improved protocol suitable for endoderm derivative lineage differentiation was developed. The improved protocol dispensed with the use of serum and inhibited JNK on the first day of definitive endoderm differentiation (FIG. 13A).

[2] = system: SOX17 and GATA6 enhancers; assay: ChIP-qPCR of SMAD2/3 and JUN binding at the SOX17 and GATA6 enhancers; format: cell-based, human; details: DE cells at Day 2
Description: Definitive endoderm cells at Day 2 were collected for chromatin immunoprecipitation. Cells were cross-linked with 1% formaldehyde (Sigma, F1635) at 37° C. for 15 min and quenched with 0.125 M glycine for 5 min at room temperature. ChIP was performed as previously described 52. Samples were incubated with […] of antibody bound to […] Dynabeads protein G (Thermo Fisher Scientific, 1004D), then incubated overnight at 4° C. 2% pre-cleared chromatin prior to primary antibody addition was kept as input DNA. Magnetic beads were washed and chromatin was eluted, and reverse cross-linked ChIP DNA was dissolved in 10 mM Tris pH 8.0 buffer for further analysis. For ChIP-qPCR, immunoprecipitated DNA was analyzed by qPCR, and the amplification product was expressed as percentage of the 2% input.

[3] = system: NKX6.1 and PDX1 expressing pancreatic progenitor cells; assay: Pancreatic progenitor differentiation after transient JNK inhibition during DE differentiation; format: cell-based, human; details: flow cytometry and immunostaining
Excerpt: as §3

[4] = system: NKX2.1 expressing lung progenitor cells; assay: Lung progenitor differentiation after transient JNK inhibition during DE differentiation; format: cell-based, human; details: flow cytometry
Excerpt: as §3

HUES8 SOX17GFP/+ cells = assay: Definitive endoderm (DE) differentiation, flow cytometry of SOX17-GFP reporter; format: cell-based, human; details: for formation of SOX17+ endoderm cells: Activin A and CHIR-99021 treatment, efficiency sensitive to dosages
Description: as §1
Cells were dissociated using TrypLE Select and resuspended in FACS buffer (5% FBS, 5 mM EDTA in PBS). First, cells were stained with surface antibody (CXCR4-APC) with LIVE/DEAD violet dye (Molecular Probe, L34955, 1:1,000) for 30 minutes at 4° C. After washing, […] After washing with FACS buffer, cells were fixed and permeabilized in 1× fixation/permeabilization buffer (eBioscience, 00-5523-00) for 30 minutes at 4° C. After fixation and permeabilization, cells were stained with intracellular conjugated antibody (SOX17-PE, GATA6-PE, GATA4-Alexa-647) in permeabilization buffer (eBioscience, 00-5523-00) for 30 minutes at 4° C. After washing with permeabilization buffer, cells were resuspended in FACS buffer, and samples were analyzed using BD LSRfortessa or BD LSRII. Flow cytometry analysis and figures were generated in Flowjo 10.

[5] = system: DE cells differentiated from human ES cells; assay: Endoderm differentiation in high or low Activin A condition, flow cytometry (CXCR4/SOX17, GATA6/GATA4) and RT-qPCR; format: cell-based; details: either high or low Activin A condition
Description: Human ES or iPS cells were cultured in E8 medium and routinely passed by EDTA. When cells reach to 80-90% confluences, cells were treated with TrpLE Select and get single cell for passaging. Typically, 0.15 millions human ES or iPS cells were plated in one well of the six-well plates with ROCK inhibitor 10 uM in 2 ML E8 media. For the H1 line, it was typically plated 0.1 million cells to accommodate the higher proliferation rate. […]
as §2
Cell pellets were lysed in TRIzol (Thermo Fisher Scientific, 15596018). […] Quantitative real-time PCR was performed in triplicate using ABsolute Blue QPCR SYBR Green Mix with low ROX (Thermo Scientific, #AB4322B) on the ABI PRISM® 7500 Real Time PCR System (Applied Biosystems) using the following protocol: 15 minutes at 95° C. followed by 40 cycles of 15 seconds at 95° C., 30 seconds at 58° C., and 30 seconds at 72° C. The signal was detected at 72° C.

[6] = system: C-terminal SMAD2 phosphorylation (Ser465/467) and JUN phosphorylation; assay: Western blotting for signaling crosstalk between Nodal and JNK pathways; format: cell-based, human; details: 15 minutes and 1 hour after initiating differentiation
Description: (§4) Cell pellets were quickly snap frozen in liquid nitrogen and lysated in lysis buffer (Cell Signaling Technology, 9803) with proteinase/phosphatase inhibitors (Cell Signaling Technology, 5872) and 1 mm PMSF (MP Biomedicals, ICN19538105). Proteins were pre-cleared by centrifugation at 14,000 g 4° C. for 10 minutes. Protein concentration was determined by Bradford assay (Bio-Rad, 500-0202). Equal amounts of protein were loaded into Bis-Tris 10% gel (Novex, NP0301BOX) and transferred to nitrocellulose membranes (Novex, LC2001). Membranes were blocked with 5% milk (for non-phosphorylated proteins) or 5% BSA (for phosphorylated proteins). Primary antibody was incubated overnight at 4° C. Membranes were washed with TBST 3 times for 10 minutes each and incubated with secondary antibody for 1 hour at R.T. Membrane were washed with TBST 3 times for 10 minutes each. ECL western blotting detection reagents (Amersham, RPN2236 and Thermo Fisher Scientific, 32106) were used to visualize the protein bands.

JUN phosphorylation = assay: Western blot of JUN phosphorylation in DE cells; format: cell-based, human
Description: as §4

[7] = system: HUES6 ES cells, and BJ and CV iPS cells; assay: Definitive endoderm differentiation in further ES and iPS cell lines, flow cytometry of SOX17; format: cell-based, human; details: without inhibitor efficiency 60-80%
Description: as §1, §2

Cc1cc(NC(=O)c2cccc(NC(=O)/C=C/CN(C)C)c2)ccc1Nc1nccc(-c2cccnc2)n1 [JNK-IN-8]
DE differentiation (SOX17+ cells) (H1 cell line; 1 μm JNK-IN-8, 3 days, H1, DMSO control ~66%): ~96%
effect on DE differentiation at Day 2 versus Day 3 (H1 cell line; 1 μm JNK-IN-8, H1 and HUES8-SOX17GFP): stronger at Day 2
induction of definitive endoderm (SOX17 and CXCR4 expression) [1]: sufficient to induce differentiation of definitive endoderm
binding of JUN to the SOX17 and GATA6 enhancers [2]: diminished
binding of SMAD2/3 to the SOX17 and GATA6 enhancers [2]: enhanced
number of NKX6.1 and PDX1 expressing pancreatic progenitor cells [3]: significantly increased
number of NKX2.1 expressing lung progenitor cells [4]: significantly increased
DE differentiation (SOX17GFP+ cells) (HUES8 SOX17GFP/+ cells; 1 μm JNK-IN-8, 3 days, HUES8-SOX17GFP, DMSO control ~79%): ~98%
requirement for Activin A in Activin A dose titration (HUES8 SOX17GFP/+ cells; HUES8 SOX17GFP/+ cells): did not omit the requirement for Activin A
SOX17+ cells formed (HUES8 SOX17GFP/+ cells; JNK-IN-8 with 20 ng/ml Activin A, HUES8 SOX17GFP/+ cells): ~95%
efficiency of endoderm differentiation based on flow cytometry [5]: greater than 90%
levels of endoderm gene expression from RT-qPCR [5]: increased
C-terminal SMAD2 phosphorylation (at Ser465/467) [6]: did not change
JUN phosphorylation (Western blot) [6]: inhibited
phosphorylation of JUN (Western blot) (JUN phosphorylation; JNK-IN-8 1 μm, H1-derived DE cells at day 3): undetectable; also recorded: inhibition of JUN phosphorylation
total JUN level (Western blot) (JUN phosphorylation; JNK-IN-8 treated cells): down-regulated
endoderm differentiation efficiency [7]: significantly improved

NC(=O)c1ccc(-c2nc(-c3ccc4c(c3)OCO4)c(-c3ccccn3)[nH]2)cc1 [SB431542]
C-terminal SMAD2 phosphorylation (at Ser465/467) [6]: blocked
JUN phosphorylation (Western blot) [6]: did not affect

Cc1c[nH]c(-c2cnc(NCCNc3ccc(C#N)cn3)nc2-c2ccc(Cl)cc2Cl)n1 [CHIR-99021, 6-(2-(4-(2,4-dichlorophenyl)-5-(4-methyl-1H-imidazol-2-yl)pyrimidin-2-ylamino)ethylamino)nicotinonitrile]
formation of SOX17+ endoderm cells (HUES8 SOX17GFP/+ cells): required
outcome of prolonged WNT activation (HUES8 SOX17GFP/+ cells; prolonged CHIR-99021 treatment): formation of CXCR4+SOX17− cells

B1: Activin A: TGF-β superfamily member that mimics the activity of Nodal (protein, UniProt P08476 311-426, looked up)
Inhibin beta A chain: GLECDGKVNICCKKQFFVSFKDIGWNDWIIAPSGYHANYCEGECPSHIAGTSGSSLSFHSTVINHYRMRGHSPFANLKSCCVPTKLRPMSMLYYDDGQNIIKKDIQNMIVEECGCS
modifications: Inhibin beta A chain
formation of SOX17+ endoderm cells (HUES8 SOX17GFP/+ cells): required
C-terminal SMAD2 phosphorylation (at Ser465/467) [6]: induces

Source: patent US20190224251A1, “METHODS OF DIFFERENTIATING STEM CELLS INTO ENDODERM” (MEMORIAL SLOAN-KETTERING CANCER CENTER, priority 2016, published 2019)
